Measurements published in ChEMBL document CHEMBL5465560, “Selectivity Literature for EUbOPEN Chemogenomic Library” (2024).

Key:
[1] = molecular target: Bone morphogenetic protein receptor type-1A (Homo sapiens, UniProt P36894); conditions: at 10 µM
[2] = molecular target: T1, Inhibitor of nuclear factor kappa-B kinase subunit beta (Homo sapiens) (UniProt O14920); experiment: Selectivity interaction (KinomeScan (DiscoverX)) EUB0001049a IKBKB; conditions: at 1 µM
T1 sequence (whole entry): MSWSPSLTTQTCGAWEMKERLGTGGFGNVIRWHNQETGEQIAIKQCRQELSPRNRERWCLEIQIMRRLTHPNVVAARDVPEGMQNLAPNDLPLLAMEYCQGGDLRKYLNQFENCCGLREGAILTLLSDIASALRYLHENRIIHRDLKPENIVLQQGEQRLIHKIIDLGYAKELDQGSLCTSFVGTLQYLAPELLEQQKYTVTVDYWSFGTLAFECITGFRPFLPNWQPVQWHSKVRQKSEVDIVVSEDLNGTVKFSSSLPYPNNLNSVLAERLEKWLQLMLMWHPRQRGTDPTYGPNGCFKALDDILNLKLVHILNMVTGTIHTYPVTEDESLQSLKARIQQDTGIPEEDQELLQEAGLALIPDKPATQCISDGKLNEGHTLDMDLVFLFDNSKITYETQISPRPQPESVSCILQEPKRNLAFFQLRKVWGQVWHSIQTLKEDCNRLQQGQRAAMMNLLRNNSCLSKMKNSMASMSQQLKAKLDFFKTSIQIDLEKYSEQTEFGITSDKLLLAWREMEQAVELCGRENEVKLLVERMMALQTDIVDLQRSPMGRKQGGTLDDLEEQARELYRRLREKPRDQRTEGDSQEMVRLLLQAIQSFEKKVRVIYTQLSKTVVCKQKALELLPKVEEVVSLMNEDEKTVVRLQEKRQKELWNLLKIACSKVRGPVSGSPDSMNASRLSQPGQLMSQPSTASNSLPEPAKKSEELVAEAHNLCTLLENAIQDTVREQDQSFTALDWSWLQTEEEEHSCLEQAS

[3] = molecular target: T2, Inhibitor of nuclear factor kappa-B kinase subunit epsilon (Homo sapiens) (UniProt Q14164); experiment: Selectivity interaction (Ambit KINOMEscan and KiNATiv profiling in Jurkat cells) EUB0000090b IKBKE; format: cell-based; conditions: at 1 µM
T2 sequence (whole entry): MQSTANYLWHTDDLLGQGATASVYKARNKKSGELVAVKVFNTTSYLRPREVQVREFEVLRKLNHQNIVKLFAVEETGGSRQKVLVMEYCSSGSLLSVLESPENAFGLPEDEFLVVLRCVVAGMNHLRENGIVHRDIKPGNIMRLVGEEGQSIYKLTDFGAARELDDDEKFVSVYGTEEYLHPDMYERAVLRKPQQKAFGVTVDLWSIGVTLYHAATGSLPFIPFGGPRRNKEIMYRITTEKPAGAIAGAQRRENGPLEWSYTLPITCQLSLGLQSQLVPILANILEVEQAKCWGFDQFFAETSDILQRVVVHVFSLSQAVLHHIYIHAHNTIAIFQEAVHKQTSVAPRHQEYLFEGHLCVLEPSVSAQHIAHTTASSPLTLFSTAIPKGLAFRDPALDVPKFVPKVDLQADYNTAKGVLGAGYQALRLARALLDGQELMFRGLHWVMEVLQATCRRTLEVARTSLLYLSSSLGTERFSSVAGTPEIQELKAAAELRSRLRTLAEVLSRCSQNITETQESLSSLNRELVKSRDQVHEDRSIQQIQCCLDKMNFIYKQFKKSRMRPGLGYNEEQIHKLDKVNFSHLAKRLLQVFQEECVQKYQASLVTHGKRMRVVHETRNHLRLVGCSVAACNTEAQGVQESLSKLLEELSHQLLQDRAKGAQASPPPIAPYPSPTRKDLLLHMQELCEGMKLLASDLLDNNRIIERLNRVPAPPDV

[4] = molecular target: Tyrosine-protein kinase Yes (Homo sapiens) (UniProt P07947); experiment: Selectivity interaction (Kinase panel (Invitrogen)) EUB0000639a YES1; conditions: at 200 nM
Chain of Tyrosine-protein kinase Yes (Homo sapiens) (P07947 2-543 limits assumed): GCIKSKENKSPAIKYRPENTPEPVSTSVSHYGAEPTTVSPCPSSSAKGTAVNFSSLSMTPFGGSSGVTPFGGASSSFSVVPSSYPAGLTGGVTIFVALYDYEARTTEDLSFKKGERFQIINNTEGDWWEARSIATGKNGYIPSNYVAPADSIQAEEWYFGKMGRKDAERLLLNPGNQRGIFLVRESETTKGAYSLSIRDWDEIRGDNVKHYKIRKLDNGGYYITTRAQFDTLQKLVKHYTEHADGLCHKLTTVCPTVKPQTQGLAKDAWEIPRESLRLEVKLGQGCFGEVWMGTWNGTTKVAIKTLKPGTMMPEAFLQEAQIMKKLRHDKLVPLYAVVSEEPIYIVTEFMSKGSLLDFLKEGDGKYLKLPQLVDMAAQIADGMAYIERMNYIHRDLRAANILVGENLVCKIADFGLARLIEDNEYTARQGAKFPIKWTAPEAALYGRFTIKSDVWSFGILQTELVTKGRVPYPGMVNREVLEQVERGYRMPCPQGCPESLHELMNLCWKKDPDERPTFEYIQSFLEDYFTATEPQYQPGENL

[5] = molecular target: RAF proto-oncogene serine/threonine-protein kinase (Homo sapiens) (UniProt P04049); experiment: Selectivity interaction (KinomeScan (DiscoverX)) EUB0001079a RAF1; conditions: at 1 µM
Chain of RAF proto-oncogene serine/threonine-protein kinase (Homo sapiens) (P04049 whole entry): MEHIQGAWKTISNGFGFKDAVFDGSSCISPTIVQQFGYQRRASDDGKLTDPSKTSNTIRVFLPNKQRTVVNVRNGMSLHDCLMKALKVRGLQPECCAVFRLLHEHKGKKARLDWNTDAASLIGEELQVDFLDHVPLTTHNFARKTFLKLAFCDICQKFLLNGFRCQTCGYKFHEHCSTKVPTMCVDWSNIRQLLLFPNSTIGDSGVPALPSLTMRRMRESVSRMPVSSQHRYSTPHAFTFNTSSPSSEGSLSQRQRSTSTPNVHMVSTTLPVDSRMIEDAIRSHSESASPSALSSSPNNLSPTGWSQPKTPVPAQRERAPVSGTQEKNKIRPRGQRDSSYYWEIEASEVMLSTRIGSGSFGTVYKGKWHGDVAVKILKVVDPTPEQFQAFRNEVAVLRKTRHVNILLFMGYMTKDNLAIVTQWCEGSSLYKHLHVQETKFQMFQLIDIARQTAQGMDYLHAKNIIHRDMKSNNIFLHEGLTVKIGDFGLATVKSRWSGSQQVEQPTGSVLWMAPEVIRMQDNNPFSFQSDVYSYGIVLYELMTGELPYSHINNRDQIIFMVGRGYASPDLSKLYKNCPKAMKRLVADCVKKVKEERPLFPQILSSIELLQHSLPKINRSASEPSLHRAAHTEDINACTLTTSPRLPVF

[6] = molecular target: Tyrosine-protein kinase Blk (Homo sapiens) (UniProt P51451); experiment: Selectivity interaction (Upstate Kinase Profiler service (Millipore)) EUB0000056c BLK; conditions: at 1 µM
Chain of Tyrosine-protein kinase Blk (Homo sapiens) (P51451 2-505 limits assumed): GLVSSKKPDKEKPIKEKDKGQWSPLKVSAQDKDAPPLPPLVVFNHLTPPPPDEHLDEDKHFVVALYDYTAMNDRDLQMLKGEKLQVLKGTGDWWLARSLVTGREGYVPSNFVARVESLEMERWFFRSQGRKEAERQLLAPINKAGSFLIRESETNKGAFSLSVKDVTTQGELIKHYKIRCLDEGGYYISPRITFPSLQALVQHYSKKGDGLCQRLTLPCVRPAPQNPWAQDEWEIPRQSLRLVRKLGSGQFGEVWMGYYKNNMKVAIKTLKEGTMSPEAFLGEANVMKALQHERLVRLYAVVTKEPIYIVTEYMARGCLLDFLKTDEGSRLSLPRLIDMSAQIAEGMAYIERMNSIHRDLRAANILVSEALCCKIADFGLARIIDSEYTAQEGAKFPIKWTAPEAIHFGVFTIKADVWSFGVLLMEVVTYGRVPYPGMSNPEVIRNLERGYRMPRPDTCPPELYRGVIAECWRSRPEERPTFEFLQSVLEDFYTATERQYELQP

[7] = molecular target: Ribosomal protein S6 kinase alpha-4 (Homo sapiens) (UniProt O75676); experiment: Selectivity interaction (KinomeScan (DiscoverX)) EUB0000655a RPS6KA4; conditions: at 10 µM
Chain of Ribosomal protein S6 kinase alpha-4 (Homo sapiens) (O75676 whole entry, looked up): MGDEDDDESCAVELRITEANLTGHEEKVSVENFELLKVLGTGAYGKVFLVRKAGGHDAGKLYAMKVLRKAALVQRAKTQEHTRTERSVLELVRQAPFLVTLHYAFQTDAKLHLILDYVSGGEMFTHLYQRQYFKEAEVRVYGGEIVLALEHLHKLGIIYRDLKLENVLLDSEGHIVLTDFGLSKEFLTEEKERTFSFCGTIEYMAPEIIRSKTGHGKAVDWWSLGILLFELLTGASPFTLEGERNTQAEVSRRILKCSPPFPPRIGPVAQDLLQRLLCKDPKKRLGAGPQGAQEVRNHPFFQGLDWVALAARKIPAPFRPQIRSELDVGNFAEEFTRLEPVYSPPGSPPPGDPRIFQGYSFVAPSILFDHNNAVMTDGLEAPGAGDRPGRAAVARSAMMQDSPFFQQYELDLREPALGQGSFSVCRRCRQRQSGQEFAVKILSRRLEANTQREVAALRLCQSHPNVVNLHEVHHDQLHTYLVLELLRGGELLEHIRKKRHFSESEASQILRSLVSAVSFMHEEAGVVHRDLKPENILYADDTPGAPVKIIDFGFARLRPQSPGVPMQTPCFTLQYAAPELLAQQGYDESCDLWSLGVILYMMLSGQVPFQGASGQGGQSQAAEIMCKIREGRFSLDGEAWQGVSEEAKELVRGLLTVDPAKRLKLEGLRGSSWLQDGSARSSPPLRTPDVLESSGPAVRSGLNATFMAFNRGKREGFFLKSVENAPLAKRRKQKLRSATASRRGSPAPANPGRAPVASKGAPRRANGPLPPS

[8] = molecular target: T3, Serine/threonine-protein kinase Nek9 (Homo sapiens) (UniProt Q8TD19); experiment: Selectivity interaction (KinomeScan (DiscoverX)) EUB0001619a NEK9; conditions: at 1 µM
T3 sequence (whole entry): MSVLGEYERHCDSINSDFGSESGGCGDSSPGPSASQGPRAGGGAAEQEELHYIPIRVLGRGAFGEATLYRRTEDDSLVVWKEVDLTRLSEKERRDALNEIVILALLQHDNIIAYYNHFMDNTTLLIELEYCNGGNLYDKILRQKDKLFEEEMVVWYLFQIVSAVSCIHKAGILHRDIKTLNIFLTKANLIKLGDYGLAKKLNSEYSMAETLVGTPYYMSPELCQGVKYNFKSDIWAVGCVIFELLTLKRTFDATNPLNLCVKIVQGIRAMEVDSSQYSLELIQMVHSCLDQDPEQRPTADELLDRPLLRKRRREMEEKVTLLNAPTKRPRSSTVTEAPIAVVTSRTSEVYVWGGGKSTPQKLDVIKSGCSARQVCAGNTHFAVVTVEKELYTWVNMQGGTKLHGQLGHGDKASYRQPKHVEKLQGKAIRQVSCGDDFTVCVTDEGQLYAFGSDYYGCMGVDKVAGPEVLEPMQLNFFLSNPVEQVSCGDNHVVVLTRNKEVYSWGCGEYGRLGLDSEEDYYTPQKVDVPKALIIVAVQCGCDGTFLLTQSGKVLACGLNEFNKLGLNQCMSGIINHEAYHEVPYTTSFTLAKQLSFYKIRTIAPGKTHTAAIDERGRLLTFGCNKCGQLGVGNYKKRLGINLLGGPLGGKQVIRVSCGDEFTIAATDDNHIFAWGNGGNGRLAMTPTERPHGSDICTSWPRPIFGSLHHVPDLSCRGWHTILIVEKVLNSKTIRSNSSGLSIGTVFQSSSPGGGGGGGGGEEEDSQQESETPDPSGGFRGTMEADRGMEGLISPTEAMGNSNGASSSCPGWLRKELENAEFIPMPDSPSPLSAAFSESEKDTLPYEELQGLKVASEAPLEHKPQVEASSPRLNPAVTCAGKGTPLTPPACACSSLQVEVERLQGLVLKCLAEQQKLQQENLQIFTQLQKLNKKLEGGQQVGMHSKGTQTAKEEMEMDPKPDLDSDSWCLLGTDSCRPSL

[9] = molecular target: DNA-dependent protein kinase catalytic subunit (Homo sapiens) (UniProt P78527); experiment: Selectivity interaction (ActivX KiNativ screen (ex vivo kinase selectivity in human PBMCs)) EUB0001619a PRKDC; format: cell-based; conditions: PBMC, at 1 µM

Chain of Bone morphogenetic protein receptor type-1A (P36894 whole entry): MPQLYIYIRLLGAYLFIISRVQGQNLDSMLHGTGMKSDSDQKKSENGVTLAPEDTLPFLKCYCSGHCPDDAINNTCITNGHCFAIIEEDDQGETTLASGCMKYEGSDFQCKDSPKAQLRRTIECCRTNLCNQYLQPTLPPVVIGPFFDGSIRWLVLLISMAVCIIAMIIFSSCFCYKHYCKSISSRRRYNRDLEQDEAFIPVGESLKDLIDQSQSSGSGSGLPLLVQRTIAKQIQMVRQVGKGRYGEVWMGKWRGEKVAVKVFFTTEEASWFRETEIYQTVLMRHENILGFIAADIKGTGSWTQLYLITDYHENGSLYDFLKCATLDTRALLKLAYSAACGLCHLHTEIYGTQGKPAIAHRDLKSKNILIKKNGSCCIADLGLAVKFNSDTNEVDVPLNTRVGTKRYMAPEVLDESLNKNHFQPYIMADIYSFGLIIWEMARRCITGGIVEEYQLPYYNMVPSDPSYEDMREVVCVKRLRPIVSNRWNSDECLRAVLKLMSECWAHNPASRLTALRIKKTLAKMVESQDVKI

## Cc1cc([C@@H](C)Nc2ccccc2C(=O)O)c2nc(N3CCOCC3)cc(=O)n2c1 [AZD-6482]
[1]
  % of control: 98%

## COc1cc(Nc2nc(C)cc(-c3cnn4nc(OC)ccc34)n2)cc(C(F)(F)F)c1
[2]
  % of control: 81%

## CN(C)C/C=C/C(=O)Nc1ccc(C(=O)N2CCCC(Nc3ncc(Cl)c(-c4c[nH]c5ccccc45)n3)C2)cc1 (centres undefined)
[3]
  % of control: 100%

## CC[C@@H]1[C@H](F)C(=O)N[C@@H]1COc1nccc2cc(C(N)=O)c(OC)cc12 [ZIMLOVISERTIB]
[4]
  % of inhibition: 3.51%

## Nc1cnc(N2CCc3cc(S(=O)(=O)Nc4c(F)cc(Cl)cc4F)cc(N4CCCC4=O)c32)nc1 [TP-020n]
[5]
  % of control: 79%

## Cc1ccc(-c2ccc3c(ccc4sc5c(c43)NC[C@@H](C)NC5=O)n2)cn1
[6]
  % of inhibition: 14%

## CN(C)CCOc1ccc(-c2nc(-c3ccncc3)c(-c3ccc4c(c3)CC/C4=N\O)[nH]2)cc1
[7]
  % of control: 100%

## N#Cc1cccc(-c2c[nH]c3ncnc(N4CCOCC4)c23)c1
[8]
  % of control: 97%
[9]
  % of inhibition: 15%
